Legend:
[1] = system: PBMC isolated from M. bovis-infected cattle; format: cell-based
[2] = system: PBMC isolated from M. bovis-infected cattle; format: cell-based; remark: listed apart in the source
M. bovis infected cattle = conditions: Mustafa et al., 2006, cited from earlier work

| Substance | intracellular IFN-γ production [1] | recognition / response in ELISPOT (cattle responding of the three tested) [2] | further results |
| --- | --- | --- | --- |
| AKIYSEADEA WRKAIDGLFT (AKIYSEADEAWRKAIDGLFT; fragment of full length protein) [SEQ ID NO: 13] | Markedly higher levels of IFN-γ | all three | average spot-forming units (SFU) [2]: 509 SFU per 10^6 PBMC |
| GVDLAKSLRI AAKIYSEADE (GVDLAKSLRIAAKIYSEADE; fragment of full length protein) [SEQ ID NO: 11] | no IFN-γ response | a response was recorded | dead cells in the sample [1]: > 64% |
| LGSSLHTAGV DLAKSLRIAA (LGSSLHTAGVDLAKSLRIAA; fragment of full length protein) [SEQ ID NO: 10] | Markedly higher levels of IFN-γ |  |  |
| RIAAKIYSEA DEAWRKAIDG (RIAAKIYSEADEAWRKAIDG; fragment of full length protein) [SEQ ID NO: 12] | Markedly higher levels of IFN-γ |  |  |
| Rv3616c: product of the first gene of the Rv3616c-Rv3612c operon, a dominant mycobacterial antigen (Mustafa et al., 2006) |  |  | vaccinated individuals that respond (M. bovis infected cattle; BCG vaccinated): 40%; frequency of recognition in M. bovis infected cattle (M. bovis infected cattle): 84.6% |
| VYLTAHNALG SSLHTAGVDL (VYLTAHNALGSSLHTAGVDL; fragment of full length protein) [SEQ ID NO: 9] | Markedly higher levels of IFN-γ |  |  |

Reference: patent US9618509B2 (priority 2007, dated 2017)
